From patent US20100184683A1, “ANTIBACTERIAL AND ANTIFUNGAL PEPTIDES” (C3 JIAN, INC., priority 2009, published 2010) come the findings set out here.

One experiment deals with B. subtilis. Type of experiment: cell-based, Bacillus subtilis. Here is the method:
(§1) In certain embodiments the MIC assays are performed as described herein in the Examples. For each organism, the media and growth conditions utilized is detailed in Table 8.
(§2) In certain embodiments the MIC assays are performed as follows: For each organism, the media and growth conditions utilized is detailed in Table 8.

Another experiment has as its system A. niger. Type of experiment: cell-based, Aspergillus niger. Here is the method:
as §1, §2

In another experiment the test system is S. epidermidis. Type of experiment: cell-based. As to the method:
as §1, §2

The test system of another experiment is MRSA. Type of experiment: cell-based, Methicillin-resistant Staphylococcus aureus. As to the method:
as §1, §2

A further experiment concerns Candida albicans. The experiment is described as follows: Binding of targeting peptides to Candida albicans. The following applies: tested at 3.13, 6.25, 12.5 and 25.0 μM in 1× PBS or HEPES/NaCl/MgCl2/0.1% CTAB. Here is the method: The peptides in Table 6 were tested for binding efficiency at 3.13, 6.25, 12.5 and 25.0 μM concentrations in 1× phosphate-buffered saline or 20 mM HEPES (4-(2-hydroxyethyl)-1-piperazineethanesulfonic acid), 150 mM sodium chloride, 1 mM magnesium chloride and 0.1% CTAB.

The test system of the next experiment is T. rubrum. The experiment is classed as cell-based, Trichophyton rubrum. As to the method:
as §1, §2

The subject of another experiment is C. albicans. Type of experiment: cell-based, Candida albicans. Here is the method:
as §1, §2

The next experiment has as its system S. pneumoniae. Type of experiment: cell-based, Streptococcus pneumoniae. As to the method:
as §1, §2

The mark [1] stands for this setting: A. niger, Potato Dextrose Agar, 25° C., aerobic, inoculum 10^5 CFU/ml, 18-24 h or 48 h.

Converted amounts (≈) assume the structure as drawn. Like-named read-outs stand apart in the source and are kept apart here. Peptide text beside a SMILES is read from it.

For `CSCC[C@H](NC(=O)[C@H](CCCNC(=N)N)NC(=O)[C@H](CCCNC(=N)N)NC(=O)[C@H](CC(C)C)NC(=O)[C@H](CCCNC(=N)N)NC(=O)[C@H](CCC(=O)O)NC(=O)[C@@H](NC(=O)[C@H](CS)NC(=O)CNC(=O)[C@H](CCCNC(=N)N)NC(=O)[C@@H](N)CCCNC(=N)N)[C@@H](C)O)C(=O)N[C@@H](C)C(=O)N[C@@H](CCCNC(=N)N)C(=O)N[C@@H](CCCNC(=N)N)C(=O)N[C@@H](CC(N)=O)C(=O)N[C@@H](C)C(=O)N[C@@H](Cc1c[nH]c2ccccc12)C(=O)N[C@@H](CC(=O)O)C(=O)N[C@@H](CC(C)C)C(=O)N[C@@H](Cc1ccc(O)cc1)C(=O)N[C@@H](C)C(=O)N[C@@H](CCC(=O)O)C(=O)N[C@@H](Cc1c[nH]cn1)C(=O)N[C@@H](Cc1ccccc1)C(=O)N[C@@H](Cc1ccc(O)cc1)C(=O)O` [PF-148] (H-RRGCTERLRRMARRNAWDLYAEHFY-OH; N-terminus and C-terminus assumed), the MIC against B. subtilis and in the experiment with A. niger was 50 µM (≈ 161 µg/mL) throughout.

As to `CC[C@H](C)[C@H](NC(=O)[C@H](CC(N)=O)NC(=O)[C@@H](NC(=O)[C@H](Cc1ccccc1)NC(=O)[C@H](CCC(=O)O)NC(=O)CNC(=O)[C@H](CCC(N)=O)NC(=O)[C@H](Cc1ccccc1)NC(=O)[C@@H](N)CCCCN)[C@@H](C)O)C(=O)NCC(=O)N[C@@H](CCC(N)=O)C(=O)N[C@@H](CO)C(=O)N[C@@H](Cc1ccc(O)cc1)C(=O)N[C@H](C(=O)N[C@H](C(=O)N[C@@H](CO)C(=O)N[C@@H](C)C(=O)N[C@@H](CO)C(=O)N[C@@H](Cc1c[nH]cn1)C(=O)N[C@@H](CCSC)C(=O)N[C@@H](CO)C(=O)N[C@H](C(=O)N[C@@H](CO)C(=O)N[C@@H](CC(C)C)C(=O)N[C@@H](CC(N)=O)C(=O)N[C@H](C(=O)NCC(=O)N[C@@H](CCCCN)C(=O)O)[C@@H](C)O)[C@@H](C)O)C(C)C)[C@@H](C)CC` [PF-583] (H-KFQGEFTNIGQSYIVSASHMSTSLNTGK-OH; N-terminus and C-terminus assumed), the MIC in the experiment on S. epidermidis and against MRSA was 50 µM (≈ 152 µg/mL) each time. For the same compound, the “Target(s): form of Candida albicans bound” value with Candida albicans is “hyphae”.

On to `CC[C@H](C)[C@H](NC(=O)[C@H](CCCNC(=N)N)NC(=O)[C@H](C)NC(=O)[C@@H]1CCCN1C(=O)[C@H](Cc1c[nH]c2ccccc12)NC(=O)[C@H](CC(C)C)NC(=O)[C@H](CCCNC(=N)N)NC(=O)[C@H](CCCCN)NC(=O)[C@@H](N)Cc1c[nH]c2ccccc12)C(=O)N[C@@H](CC(C)C)C(=O)N[C@@H](C)C(=O)NCC(=O)N[C@@H](Cc1c[nH]cn1)C(=O)N[C@@H](CO)C(=O)N[C@@H](CCCNC(=N)N)C(=O)N[C@@H](CCCNC(=N)N)C(=O)N[C@@H](CCCNC(=N)N)C(=O)N[C@@H](CCSC)C(=O)N[C@@H](CCCNC(=N)N)C(=O)N[C@@H](Cc1c[nH]c2ccccc12)C(=O)N[C@@H](CCSC)C(=O)N[C@H](C(=O)N[C@H](C(=O)N[C@@H](Cc1c[nH]c2ccccc12)C(=O)N[C@@H](CCCNC(=N)N)C(=O)N[C@@H](Cc1ccc(O)cc1)C(=O)N[C@@H](Cc1ccccc1)C(=O)N[C@@H](C)C(=O)N[C@@H](C)C(=O)N[C@H](C(=O)O)[C@@H](C)O)C(C)C)C(C)C` [PF-C021] (H-WKRLWPARILAGHSRRRMRWMVVWRYFAAT-OH; N-terminus and C-terminus assumed), for which the MIC against T. rubrum and against C. albicans was 50 µM (≈ 193 µg/mL) in each case.

As to LSEMERRRLRKRA [PF-529], the MIC with A. niger (setting [1]) was determined as 50 µM; against S. pneumoniae (S. pneumoniae, TSB supplemented with 5% yeast extract, 37° C., 10% CO2, inoculum 10^6 CFU/ml, 18-24 h or 48 h) it was 50 µM.

In the experiment on MRSA, `CC(C)[C@H](NC(=O)[C@H](C)NC(=O)[C@H](Cc1ccc(O)cc1)NC(=O)[C@@H](N)CC(N)=O)C(=O)N[C@H](C(=O)N[C@@H](CO)C(=O)N[C@@H](Cc1c[nH]cn1)C(=O)N[C@H](C(=O)O)[C@@H](C)O)C(C)C` [PF-209] (H-NYAVVSHT-OH; N-terminus and C-terminus assumed) came in with an MIC of 50 µM (≈ 44.5 µg/mL).

Consider `CC[C@H](C)[C@H](NC(=O)[C@H](C)NC(=O)[C@@H]1CCCN1C(=O)[C@H](Cc1ccccc1)NC(=O)[C@@H]1CCCN1C(=O)[C@H](CC(C)C)NC(=O)[C@@H](N)C(C)C)C(=O)N1CCC[C@H]1C(=O)N[C@@H](CC(C)C)C(=O)N[C@@H](CO)C(=O)N[C@@H](CCCNC(=N)N)C(=O)N[C@@H](CCCNC(=N)N)C(=O)N[C@@H](CCCNC(=N)N)C(=O)N[C@@H](C)C(=O)N[C@@H](CS)C(=O)N[C@H](C(=O)N[C@@H](C)C(=O)N[C@@H](C)C(=O)N1CCC[C@H]1C(=O)N[C@@H](CCCNC(=N)N)C(=O)N1CCC[C@H]1C(=O)N[C@@H](CCCNC(=N)N)C(=O)N[C@@H](CO)C(=O)N[C@@H](CCCNC(=N)N)C(=O)N[C@@H](CCC(N)=O)C(=O)N[C@@H](CCCNC(=N)N)C(=O)N[C@@H](C)C(=O)N[C@@H](CO)C(=O)O)C(C)C` [PF-168] (H-VLPFPAIPLSRRRACVAAPRPRSRQRAS-OH; N-terminus and C-terminus assumed), for which the MIC against A. niger, against MRSA and against T. rubrum was 50 µM (≈ 156 µg/mL) throughout. The “Target(s): form of Candida albicans bound” value in the experiment on Candida albicans is on record as “yeast cells”.

Turning to RESKLIAMADMIRRRI [PF-545], the MIC with B. subtilis (B. subtilis, BHI, 30° C., aerobic, inoculum 10^5 CFU/ml, 18-24 h or 48 h) was found to be 25 µM; against A. niger (setting [1]), 50 µM; in the experiment on MRSA (MRSA, BHI supplemented with 2% glucose, 37° C., aerobic, inoculum 10^5 CFU/ml, 18-24 h or 48 h), 50 µM.

Turning to `CC[C@H](C)[C@H](NC(=O)[C@H](CO)NC(=O)[C@H](CC(N)=O)NC(=O)[C@H](CCCNC(=N)N)NC(=O)[C@H](CC(N)=O)NC(=O)[C@H](CC(C)C)NC(=O)[C@H](CCCCN)NC(=O)[C@H](CCCCN)NC(=O)[C@H](CCCCN)NC(=O)[C@@H](NC(=O)[C@@H]1CCCN1C(=O)[C@H](CO)NC(=O)[C@H](CCCNC(=N)N)NC(=O)[C@@H](NC(=O)[C@H](CCCNC(=N)N)NC(=O)[C@@H](NC(=O)[C@@H](N)CCSC)[C@@H](C)CC)[C@@H](C)CC)[C@@H](C)O)C(=O)N[C@@H](CO)C(=O)N[C@@H](CC(=O)O)C(=O)N[C@@H](Cc1c[nH]c2ccccc12)C(=O)N[C@@H](CCCCN)C(=O)N[C@@H](CO)C(=O)N[C@@H](CC(N)=O)C(=O)N[C@H](C(=O)N[C@@H](CO)C(=O)NCC(=O)N[C@@H](CCCNC(=N)N)C(=O)N[C@@H](Cc1ccccc1)C(=O)N[C@@H](Cc1ccccc1)C(=O)N[C@@H](Cc1ccc(O)cc1)C(=O)O)[C@@H](C)O` [PF-283] (H-MIRIRSPTKKKLNRNSISDWKSNTSGRFFY-OH; N-terminus and C-terminus assumed), the MIC in the experiment on B. subtilis, with S. epidermidis and against T. rubrum was 50 µM (≈ 182 µg/mL) in each case.

In the experiment on C. albicans, `CC[C@H](C)[C@H](N)C(=O)N[C@@H](CC(C)C)C(=O)N[C@H](C(=O)N[C@@H](CC(C)C)C(=O)N[C@@H](CC(C)C)C(=O)N[C@@H](C)C(=O)N[C@@H](CC(C)C)C(=O)N[C@@H](CCC(N)=O)C(=O)N[C@H](C(=O)N[C@@H](CCC(=O)O)C(=O)N[C@@H](CC(C)C)C(=O)N[C@@H](CC(=O)O)C(=O)N[C@@H](CO)C(=O)N[C@@H](CCCCN)C(=O)N[C@@H](Cc1ccccc1)C(=O)N[C@@H](CCC(N)=O)C(=O)N[C@@H](Cc1ccc(O)cc1)C(=O)O)C(C)C)C(C)C` [PF-C157] (H-ILVLLALQVELDSKFQY-OH; N-terminus and C-terminus assumed) gave an MIC of 50 µM (≈ 99.6 µg/mL).

`CC(C)[C@H](NC(=O)[C@@H](N)Cc1ccc(O)cc1)C(=O)N[C@@H](CC(N)=O)C(=O)N[C@@H](Cc1ccc(O)cc1)C(=O)N[C@@H](CC(N)=O)C(=O)N[C@@H](CCC(N)=O)C(=O)N[C@@H](CO)C(=O)N[C@@H](Cc1ccccc1)C(=O)N[C@@H](CC(N)=O)C(=O)N[C@@H](CO)C(=O)NCC(=O)N[C@@H](Cc1c[nH]c2ccccc12)C(=O)O` [PF-C220] (H-YVNYNQSFNSGW-OH; N-terminus and C-terminus assumed) gave an MIC against C. albicans of 50 µM (≈ 73.9 µg/mL).

In the case of `CC(C)C[C@H](NC(=O)[C@H](CCC(N)=O)NC(=O)[C@H](CO)NC(=O)[C@H](CCC(N)=O)NC(=O)[C@H](CC(C)C)NC(=O)[C@@H](N)CO)C(=O)NCC(=O)N1CCC[C@H]1C(=O)N[C@@H](CS)C(=O)N[C@@H](CC(C)C)C(=O)N[C@@H](Cc1c[nH]cn1)C(=O)N[C@@H](CC(=O)O)C(=O)N[C@@H](CCC(N)=O)C(=O)N[C@@H](CCCNC(=N)N)C(=O)N[C@@H](Cc1c[nH]cn1)C(=O)O` [PF-448] (H-SLQSQLGPCLHDQRH-OH; N-terminus and C-terminus assumed), the values for the MIC in the experiment with A. niger and in the experiment with S. pneumoniae were 25 µM (≈ 43 µg/mL) and 50 µM (≈ 85.9 µg/mL), respectively.

`CC[C@H](C)[C@H](NC(=O)[C@H](CCC(N)=O)NC(=O)[C@H](CC(=O)O)NC(=O)[C@H](CO)NC(=O)[C@H](Cc1ccccc1)NC(=O)[C@@H](N)CCCCN)C(=O)N[C@@H](CC(=O)O)C(=O)N[C@@H](CCCCN)C(=O)NCC(=O)N[C@@H](CCC(N)=O)C(=O)N[C@@H](CC(=O)O)C(=O)N[C@@H](C)C(=O)N[C@@H](CC(C)C)C(=O)N[C@@H](CCCCN)C(=O)N[C@@H](CC(=O)O)C(=O)N[C@@H](CCCCN)C(=O)N[C@@H](CC(C)C)C(=O)NCC(=O)N[C@@H](CC(=O)O)C(=O)N[C@@H](CC(C)C)C(=O)O` [PF-525] (H-KFSDQIDKGQDALKDKLGDL-OH; N-terminus and C-terminus assumed): the MIC with A. niger and with S. pneumoniae was 50 µM (≈ 112 µg/mL) in each case.
